Results: paper PMC7938888, “Antidepressant drugs act by directly binding to TRKB neurotrophin receptors” (Cell, 2021)

Legend:
[1] = system: TRKB:PLC-γ1 interaction; test: TRKB:PLC-γ1 interaction ELISA in MG87 cells expressing TRKB; format: cell-based, mouse; conditions: cholesterol 20 μM/15 min
Description: The cell line NIH 3T3 (mouse fibroblasts) stably transfected to express TRKB or TRKA (MG87.TRKB or MG87.TRKA, respectively) were used for in vitro assays ([Antila et al., 2014]), N2A and HEK293T cells were used to overexpress GFP-tagged TRKB for binding assays. The cells were maintained at 5% CO2, 37°C in Dulbecco’s Modified Eagle’s Medium (DMEM, containing 10% fetal calf serum, 1% penicillin/streptomycin, 1% L-glutamine, and, in the case of MG87.TRKB cells, with […] of G418). The cell lines used in the present study were not authenticated or genotyped for sex.
The TRKB:pY (phosphorylated TRKB), TRKB:PLC-γ1, PLC-γ1:pTRKB.Y816 interactions and were determined by ELISA, based on the general method described in literature ([Antila et al., 2014]; [Fred et al., 2019]), with minor adjustments. Briefly, white 96-well plates (OptiPlate 96F-HB, Perkin Elmer) were coated with capturing anti-TRKB or PLC-γ1 antibody (1:1000) in carbonate buffer (pH = 9.8) overnight (ON) at 4°C. Following a blocking step with 2%BSA in TBS-T (2 h, RT), samples were incubated ON at 4°C. […] Finally, the chemiluminescent signal generated by the reaction with ECL was analyzed in a plate reader (Varioskan Flash, Thermo Scientific).

[2] = system: surface TRKB; test: Surface TRKB ELISA in MG87.TRKB cells; format: cell-based, mouse; conditions: cholesterol 20 μM/15 min
Description: (§1) The surface levels of TRKB were also determined by ELISA ([Zheng et al., 2008]). Briefly, the MG87.TRKB cells or primary cortical cells from rat or mouse embryos, cultivated in clear bottom 96-well plates (ViewPlate 96, Perkin Elmer), were washed with ice-cold PBS and fixed with 100μl of 4% PFA per well. After washing with PBS and blocking with PBS containing 5% nonfat dry milk and 5% BSA, the samples were incubated with primary anti-TRKB antibody (R&D Systems, #AF1494, 1:1000 in blocking buffer) or anti-GluR1 subunit of AMPA receptors (CST, #8850, 1:2000 in blocking buffer) ON at 4°C. Following washing, the samples were incubated with HRP-conjugated anti-goat or anti-rabbit IgG (1:5000 in blocking buffer) for 1h at RT. The cells were washed 4x with 200μl of PBS for 10 min each. Finally, the chemiluminescent signal generated by reaction with ECL was analyzed in a plate reader.

[3] = system: TRKB.T1ΔEC; test: Cell-free ligand binding assay, TRKB deletion construct; conditions: construct with TMD and short juxtamembrane sequences only
[4] = system: surface TRKB; test: Surface TRKB ELISA in primary cortical neurons; format: cell-based, rat; conditions: primary cortical neurons
Description: as §1

[5] = system: GluR1 subunit of AMPA receptors; test: Surface GluR1 ELISA in rat cortical cells; format: cell-based
Description: Briefly, the MG87.TRKB cells or primary cortical cells from rat or mouse embryos, cultivated in clear bottom 96-well plates (ViewPlate 96, Perkin Elmer), were washed with ice-cold PBS and fixed with 100μl of 4% PFA per well. […] Following washing, the samples were incubated with HRP-conjugated anti-goat or anti-rabbit IgG (1:5000 in blocking buffer) for 1h at RT. The cells were washed 4x with 200μl of PBS for 10 min each. Finally, the chemiluminescent signal generated by reaction with ECL was analyzed in a plate reader.

Structure (SMILES) | interaction of TRKB with PLC-γ1 [1] | cell surface translocation of TRKB [2] | binding to TRKB.T1ΔEC [3] | surface expression of TRKB [4] | cell surface localization of GluR1 subunits of AMPA receptors [5]
CC(C)CCC[C@@H](C)[C@H]1CC[C@H]2[C@@H]3CC=C4C[C@@H](O)CC[C@]4(C)[C@H]3CC[C@]12C [CHOL, cholesterol] | promoted the interaction of TRKB | increased cell surface translocation of TRKB | – | – | –
CNCCC(Oc1ccc(C(F)(F)F)cc1)c1ccccc1 (centres unmarked) [FLX, fluoxetine] | – | – | robust binding | increased the surface expression of TRKB | increased cell surface localization of GluR1 subunits
